Measured values: ChEMBL document CHEMBL1806418, “Azepanone-based inhibitors of human cathepsin S: optimization of selectivity via the P2 substituent” (Bioorg Med Chem Lett, 2011)

Experiments:
[1] = target: T1, Procathepsin L (Homo sapiens, UniProt P07711); test: Inhibition of human recombinant cathepsin L using Z-LR-AMC as substrate by fluorescence assay
[2] = target: T2, Cathepsin S (Homo sapiens, UniProt P25774); test: Inhibition of human recombinant cathepsin S using Ac-KQLR-AMC as substrate by fluorescence assay
[3] = target: T3, Cathepsin K (Homo sapiens, UniProt P43235); test: Inhibition of human recombinant cathepsin K using z-LR-AFC as substrate by fluorescence assay
T3 sequence (P43235 whole entry): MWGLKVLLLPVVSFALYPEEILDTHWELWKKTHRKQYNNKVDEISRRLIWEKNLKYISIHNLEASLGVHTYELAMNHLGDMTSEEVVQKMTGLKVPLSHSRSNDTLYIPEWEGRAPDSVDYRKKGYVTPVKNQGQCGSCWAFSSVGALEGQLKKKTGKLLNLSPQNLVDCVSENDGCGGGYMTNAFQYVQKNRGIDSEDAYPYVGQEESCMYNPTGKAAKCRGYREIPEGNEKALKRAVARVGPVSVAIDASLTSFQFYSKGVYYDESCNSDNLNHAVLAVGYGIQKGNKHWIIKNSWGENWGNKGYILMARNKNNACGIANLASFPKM

[4] = target: T2, Cathepsin S; test: Inhibition of cathepsin S in human Raji cells assessed as decrease in cell surface expression of MHC class 2/CLIP by flow cytometric analysis; type: cell-based
[5] = target: T3, Cathepsin K; test: Inhibition of human cathepsin K using Z-Lys-Gln-Lys-Leu-Arg-AMC as substrate after 1 hr by fluorescence assay; details: read-out: Ki(app)
[6] = target: T2, Cathepsin S; test: Inhibition of human cathepsin S using Z-Lys-Gln-Lys-Leu-Arg-AMC as substrate after 1 hr by fluorescence assay; details: read-out: Ki(app)
[7] = target: T1, Procathepsin L; test: Inhibition of human cathepsin L using Z-Phe-Arg-AMC as substrate after 1 hr by fluorescence assay; details: read-out: Ki(app)

T2 sequence (P25774 whole entry): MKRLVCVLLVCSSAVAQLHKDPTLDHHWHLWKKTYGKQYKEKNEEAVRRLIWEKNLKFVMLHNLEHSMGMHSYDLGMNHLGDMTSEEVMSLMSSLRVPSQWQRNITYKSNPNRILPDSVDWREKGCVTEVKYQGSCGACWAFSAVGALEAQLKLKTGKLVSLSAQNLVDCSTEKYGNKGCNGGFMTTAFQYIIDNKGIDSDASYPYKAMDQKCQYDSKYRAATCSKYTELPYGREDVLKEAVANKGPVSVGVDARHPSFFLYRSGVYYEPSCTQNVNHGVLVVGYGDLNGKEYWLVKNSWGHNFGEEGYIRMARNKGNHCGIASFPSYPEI
T1 sequence (P07711 whole entry): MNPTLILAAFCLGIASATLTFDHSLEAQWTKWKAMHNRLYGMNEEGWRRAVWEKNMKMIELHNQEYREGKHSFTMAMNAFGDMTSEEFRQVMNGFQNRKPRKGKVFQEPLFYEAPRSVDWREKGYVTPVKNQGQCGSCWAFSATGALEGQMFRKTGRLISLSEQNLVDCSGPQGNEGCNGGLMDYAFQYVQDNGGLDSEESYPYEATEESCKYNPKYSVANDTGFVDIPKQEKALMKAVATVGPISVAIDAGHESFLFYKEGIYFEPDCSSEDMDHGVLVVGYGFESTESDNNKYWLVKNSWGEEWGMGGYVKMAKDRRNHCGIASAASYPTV

Row | IC50 [1] | IC50 [2] | IC50 [3] | IC50 [4] | Ki [5] | Ki [6] | Ki [7] | Compound
1 | 3.8 nM | 4.9 nM | 9 nM | – | – | – | – | C[C@@H]1CC[C@H](NC(=O)[C@H](CC2=CCCC2)NC(=O)c2ccco2)C(=O)CN1S(=O)(=O)c1ccccn1
2 | 4.8 nM | 0.76 nM | 27.7 nM | – | – | – | – | C[C@@H]1CC[C@H](NC(=O)[C@H](CC2CCCC2)NC(=O)c2ccco2)C(=O)CN1S(=O)(=O)c1ccccn1
3 | 1.2 nM | 0.5 nM | 40.5 nM | 1780 nM | – | – | – | C[C@@H]1CC[C@H](NC(=O)[C@H](CC2CCCCC2)NC(=O)c2ccco2)C(=O)CN1S(=O)(=O)c1ccccn1
4 | < 0.4 nM | < 0.4 nM | 28.2 nM | – | – | – | – | C[C@@H]1CC[C@H](NC(=O)[C@H](CC2CCCCCC2)NC(=O)c2ccco2)C(=O)CN1S(=O)(=O)c1ccccn1
5 | 0.53 nM | 2.9 nM | 1 nM | – | – | – | – | CC(C)C[C@H](NC(=O)c1ccco1)C(=O)N[C@H]1CC[C@@H](C)N(S(=O)(=O)c2ccccn2)CC1=O
6 | 11.5 nM | 1.3 nM | 4.7 nM | 4800 nM | – | – | – | C[C@@H]1CC[C@H](NC(=O)[C@H](CC(C)(C)C)NC(=O)c2ccco2)C(=O)CN1S(=O)(=O)c1ccccn1
7 | 22.4 nM | < 0.4 nM | 11.2 nM | – | – | – | – | C[C@@H]1CC[C@H](NC(=O)[C@H](CC2(C)CCCC2)NC(=O)c2ccco2)C(=O)CN1S(=O)(=O)c1ccccn1
8 | 31.9 nM | < 0.4 nM | 44.5 nM | 1400 nM | – | – | – | C[C@@H]1CC[C@H](NC(=O)[C@H](CC2(C)CCCCC2)NC(=O)c2ccco2)C(=O)CN1S(=O)(=O)c1ccccn1
9 | 4400 nM | 101 nM | 1900 nM | – | – | – | – | C[C@@H]1CC[C@H](NC(=O)[C@@H](CC2(C)CCCC2)NC(=O)c2ccco2)C(=O)CN1S(=O)(=O)c1ccccn1
10 | 1700 nM | 37 nM | 2300 nM | – | – | – | – | C[C@@H]1CC[C@H](NC(=O)[C@@H](CC2(C)CCCCC2)NC(=O)c2ccco2)C(=O)CN1S(=O)(=O)c1ccccn1
11 | 10.7 nM | 1.9 nM | 840 nM | – | – | – | – | C[C@@H]1CC[C@H](NC(=O)[C@H](CCC2CCCC2)NC(=O)c2ccco2)C(=O)CN1S(=O)(=O)c1ccccn1
12 | 1 nM | 0.5 nM | 450 nM | – | – | – | – | CC1CCC(C[C@H](NC(=O)c2ccco2)C(=O)N[C@H]2CC[C@@H](C)N(S(=O)(=O)c3ccccn3)CC2=O)CC1 (stereo not given in full)
13 | 58.5 nM | 1.2 nM | 6200 nM | – | – | – | – | C[C@@H]1CC[C@H](NC(=O)[C@H](CC2CCC(C)(C)CC2)NC(=O)c2ccco2)C(=O)CN1S(=O)(=O)c1ccccn1
14 | 10.8 nM | 0.58 nM | 1100 nM | – | – | – | – | C[C@@H]1CC[C@H](NC(=O)[C@H](CCC2CCCC2)NC(=O)N2CCOCC2)C(=O)CN1S(=O)(=O)c1ccccn1
15 | 48.7 nM | < 0.4 nM | 136 nM | 570 nM | – | – | – | C[C@@H]1CC[C@H](NC(=O)[C@H](CC2(C)CCCCC2)NC(=O)N2CCOCC2)C(=O)CN1S(=O)(=O)c1ccccn1
16 | 139 nM | 1.5 nM | 174 nM | – | – | – | – | C[C@@H]1CC[C@H](NC(=O)[C@H](CC23CCC(CC2)C3(C)C)NC(=O)N2CCOCC2)C(=O)CN1S(=O)(=O)c1ccccn1
17 | 429 nM | 1.5 nM | 263 nM | 3880 nM | – | – | – | C[C@@H]1CC[C@H](NC(=O)[C@H](CC2(C)CCCCC2)NC(=O)c2ccco2)C(=O)CN1C(=O)c1ccccn1
18 | 10 nM | 31.6 nM | 10 nM | – | – | – | – | CC(C)C[C@H](NC(=O)c1ccco1)C(=O)N[C@H]1CC[C@@H](C)N(C(=O)c2ccccn2)CC1=O
19 | – | – | – | – | > 10000 nM | – | – | O=C(N[C@@H](Cc1ccc2ccccc2c1)C(=O)N[C@H]1CCCN(S(=O)(=O)c2ccccn2)CC1=O)c1cccc2ccccc12
20 | – | 8.3 nM | – | 940 nM | 0.1 nM | 8.3 nM | 1.2 nM | CC(C)C[C@H](NC(=O)c1cc2cc(OCCN3CCOCC3)ccc2o1)C(=O)N[C@H]1CCCN(C(=O)Cc2cccc(-c3ccccn3)c2)CC1=O
